Experimental data published in patent publication US20090149485A1, “PYRIMIDINEDIONES AS TYROSINE KINASE INHIBITORS” (Jubilant Biosys Limited, priority 2006, published 2009).

Columns and labels:
GSK3-beta = biological target: T1, GSK3-beta (Homo sapiens, UniProt P49841); assay: GSK3-beta Kinase-Glo Plus luminescent kinase assay; assay type: biochemical; details: 10 μM compound; for inhibition at 10 µM: n=4, read-out: % Inhibition at 10 μM β
T1 construct: purchased Upstate 14-306
Experimental: To analyze the activity of the compounds, the said compounds were subjected to biochemical assays. The biochemical assays as performed by the undermentioned methods are used to evaluate the potency of the compounds. This potency data is the indication of the bioactivity of the organic compounds which are described as inhibitors of GSK3beta.
(§1) GSK3 assays were performed using Kinase-Glo® Plus Luminescent Kinase Assay Kit (Promega V3772/3/4 P), in assay buffer (50 mM HEPES, 30 mM Magnesium acetate, 1 mM EDTA and 1 mM EGTA, pH 7.5) in white 96-well-Optiplates (Perkin Elmer). In a typical assay reaction mix (40 μl final volume) contained 10 μl of test compound (dissolved in DMSO), 10 μl of GSM peptide substrate (Upstate Cat#12-533) 20M-GSK3-beta; 25 μM-GSK3-alpha were added followed by 10 μl of enzyme 40 ng/well-GSK3-beta (Upstate Cat#14-306); 30 ng/well-GSK3-alpha (Upstate Cat#14-492) and 1 μM ATP. After incubation at room temperature for 30 minutes, 40 μl of Kinase-Glo reagent was added to stop the reaction, followed by another 5 minutes incubation at room temperature. Luminescence was measured using Wallac 1450 MicroBeta® TriLux (PerkinElmer) Liquid Scintillation and Luminescence Counter. The activity is expressed as a difference of the consumed ATP and total ATP.

GSK3-alpha = biological target: T2, GSK3-alpha (Homo sapiens, UniProt P49840); assay: GSK3-alpha Kinase-Glo Plus luminescent kinase assay; assay type: biochemical; details: 10 μM compound, n=3, read-out: % Inhibition at 10 μM α
T2 construct: purchased Upstate 14-492
T2 sequence (P49840 whole entry): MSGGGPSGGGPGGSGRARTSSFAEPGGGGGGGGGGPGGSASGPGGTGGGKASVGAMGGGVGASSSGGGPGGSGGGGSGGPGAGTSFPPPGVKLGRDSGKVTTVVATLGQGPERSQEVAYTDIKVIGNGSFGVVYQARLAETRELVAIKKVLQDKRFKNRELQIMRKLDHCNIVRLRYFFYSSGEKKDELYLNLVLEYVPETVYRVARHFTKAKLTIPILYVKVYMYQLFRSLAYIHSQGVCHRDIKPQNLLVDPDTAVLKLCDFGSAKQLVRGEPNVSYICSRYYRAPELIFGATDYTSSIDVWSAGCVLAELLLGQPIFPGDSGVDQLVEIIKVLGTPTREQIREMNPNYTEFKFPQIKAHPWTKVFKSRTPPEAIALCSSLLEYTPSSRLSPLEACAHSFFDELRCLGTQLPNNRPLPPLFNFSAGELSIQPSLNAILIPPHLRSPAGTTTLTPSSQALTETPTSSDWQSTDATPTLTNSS
Experimental: as §1

T1 sequence (P49841 whole entry): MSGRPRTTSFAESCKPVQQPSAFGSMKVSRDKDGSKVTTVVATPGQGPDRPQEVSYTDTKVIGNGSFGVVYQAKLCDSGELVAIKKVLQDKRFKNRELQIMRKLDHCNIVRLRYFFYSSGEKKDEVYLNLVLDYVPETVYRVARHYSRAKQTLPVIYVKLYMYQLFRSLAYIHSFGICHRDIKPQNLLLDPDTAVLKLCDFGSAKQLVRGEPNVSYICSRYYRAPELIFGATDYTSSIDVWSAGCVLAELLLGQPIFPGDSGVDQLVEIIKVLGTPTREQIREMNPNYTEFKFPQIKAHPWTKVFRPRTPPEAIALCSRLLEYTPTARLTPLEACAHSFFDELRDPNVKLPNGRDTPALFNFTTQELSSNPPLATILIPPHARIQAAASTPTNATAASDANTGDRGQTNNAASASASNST

| Compound | inhibition at 10 µM (GSK3-beta) [%] | inhibition at 10 µM (GSK3-alpha) [%] | % Inhibition at 10 μM β (GSK3-beta; n=4, 10 µM) [%] |
| --- | --- | --- | --- |
| N#Cc1ccc(Cn2cc(-c3ccco3)c(=O)[nH]c2=O)cc1 [Compound 5, 4-(2,4-Dioxo-5-furan-2-yl-3,4-dihydro-2H-pyrimidin-1-ylmethyl)-benzonitrile] | 46 | 17 |  |
| O=c1[nH]c(=O)n(Cc2ccccc2)cc1-c1cccs1 [Compound 6, 1-Benzyl-5-thiophen-2-yl-1H-pyrimidine-2,4-dione] | 45 | 10 |  |
| N#Cc1ccc(Cn2cc(-c3cccs3)c(=O)[nH]c2=O)cc1 [Compound 19, 4-(2,4-dioxo-5-thiophen-2-yl-3,4-dihydro-2H-pyrimidin-1-ylmethyl)-benzonitrile] | 23 | 15 |  |
| O=c1[nH]cc(-c2cccs2)c(=O)n1Cc1ccc([N+](=O)[O-])cc1 [Compound 17, 3-(4-nitro-benzyl)-5-thiophen-2-yl-1H-pyrimidine-2,4-dione] | 58 | 8 |  |
| O=c1[nH]c(=O)n(Cc2ccc(F)cc2)cc1-c1cccs1 [Compound 3, 1-(4-Fluoro-benzyl)-5-thiophen-2-yl-1H-pyrimidine-2,4-dione] | 66 | 11 | 68 |
| CCOC(=O)Cn1cc(-c2ccco2)c(=O)[nH]c1=O [Compound 1, (2,4-Dioxo-5-furan-2-yl-3,4-dihydro-2H-pyrimidin-1-yl)-acetic Acid Ethyl Ester] | 13 | 9 |  |
| CCOC(=O)Cn1cc(-c2cccs2)c(=O)[nH]c1=O [Compound 2, (2,4-Dioxo-5-thiophen-2-yl-3,4-dihydro-2H-pyrimidin-1-yl)-acetic acid Ethyl Ester] | 77 | 68 |  |
| N#Cc1cccc(Cn2cc(-c3cccs3)c(=O)[nH]c2=O)c1 [Compound 7, 3-(2,4-dioxo-5-thiophen-2-yl-3,4-dihydro-2H-pyrimidin-1-ylmethyl)-benzonitrile] | 45 | 16 |  |
| N#Cc1cccc(Cn2cc(-c3ccco3)c(=O)[nH]c2=O)c1 [Compound 18, 3-(5-furan-2-yl-2,4-dioxo-3,4-dihydro-2H-pyrimidin-1-ylmethyl)-benzonitrile] | 31 | 10 |  |

More lines, now with the values ahead:

| inhibition at 10 µM (GSK3-beta) [%] | inhibition at 10 µM (GSK3-alpha) [%] | % Inhibition at 10 μM β (GSK3-beta; n=4, 10 µM) [%] | Compound |
| --- | --- | --- | --- |
| 21 | 14 |  | N#Cc1ccc(Cn2c(=O)[nH]cc(-c3ccco3)c2=O)cc1 [Compound 15, 4-(2,6-dioxo-5-furan-2-yl-3,6-dihydro-2H-pyrimidin-1-ylmethyl)-benzonitrile] |
| 46 | 16 |  | O=c1[nH]cc(-c2ccco2)c(=O)n1Cc1ccc(F)cc1 [Compound 11, 3-(4-fluoro-benzyl)-5-furan-2-yl-1H-pyrimidine-2,4-dione] |
| 56 | 72 |  | O=c1[nH]c(=O)n(Cc2ccc(F)cc2)cc1-c1ccco1 [Compound 4, 1-(4-Fluoro-benzyl)-5-furan-2-yl-1H-pyrimidine-2,4-dione] |
| 25 | 13 |  | CCOC(=O)Cn1c(=O)[nH]cc(-c2ccco2)c1=O [Compound 13, (2,6-dioxo-5-furan-2-yl-3,6-dihydro-2H-pyrimidin-1-yl)-acetic Acid Ethyl Ester] |
| 64 | 22 |  | N#Cc1cccc(Cn2c(=O)[nH]cc(-c3ccco3)c2=O)c1 [Compound 9, 3-(5-furan-2-yl-2,6-dioxo-3,6-dihydro-2H-pyrimidin-1-ylmethyl)-benzonitrile] |
| 63 | 42 |  | O=c1[nH]cc(-c2ccco2)c(=O)n1Cc1ccccc1 [Compound 14, 3-benzyl-5-furan-2-yl-1H-pyrimidine-2,4-dione] |
| 53 | 11 |  | O=c1[nH]cc(-c2ccco2)c(=O)n1Cc1cc(F)cc(F)c1 [Compound 20, 3-(3,5-difluoro-benzyl)-5-furan-2-yl-1H-pyrimidine-2,4-dione] |
| 13 | 6 |  | O=c1[nH]cc(-c2cccs2)c(=O)n1Cc1ccc(F)cc1 [Compound 10, 3-(4-fluoro-benzyl)-5-thiophen-2-yl-1H-pyrimidine-2,4-dione] |
| 78 | 54 |  | N#Cc1cccc(Cn2c(=O)[nH]cc(-c3cccs3)c2=O)c1 [Compound 8, 3-(2,6-Dioxo-5-thiophen-2-yl-3,6-dihydro-2H-pyrimidin-1-ylmethyl)-benzonitrile] |
| 75 | 55 |  | O=c1[nH]cc(-c2ccco2)c(=O)n1Cc1ccc([N+](=O)[O-])cc1 [Compound 12, 3-(4-nitro-benzyl)-5-furan-2-yl-1H-pyrimidine-2,4-dione] |
